Laboratory results: patent US10842845B2, “Oxytocin improves treatment of obstructive sleep apnea” (THE GEORGE WASHINGTON UNIVERSITY, priority 2014, dated 2020)

Target: T1, DREADDs receptors on PVN OXT neurons (Homo sapiens, UniProt P20309, A239G/Y149C)
T1 construct: mCherry (C); host or cells: PVN oxytocin neurons of Sprague-Dawley rats, in vivo, transduced with AAV2-hSyn-DIO-hM3D(Gq)-mCherry and rAAV1-OXT-Cre
Assay: MAP over 21 days of CIH/H exposure with daily PVN OXT neuron activation (daily CNO)
Format: in vivo, Sprague-Dawley rats
Conditions: n=8
From the text: To record blood pressure and heart rate, male Sprague-Dawley rats, 3-4 weeks of age, were anesthetized using isoflurane (2-4%) and a HD-XII pressure transmitter was implanted (Data Sciences International, St Paul, Minn., USA) with its cathether inserted into the abdominal aorta to record pressure and EKG leads were attached subcutaneously to obtain EKG recordings and heart rate. All rats with telemetry devices were allowed 7-14 days to recover from transmitter implantation surgery before any measurements were recorded. Blood pressure and heart rate were recorded via radio-frequency signals obtained through the Ponemah data acquisition system (Data Sciences International). Baseline recordings of blood pressure and heart rate were obtained for 3 days prior to CIH/H exposure. Prior to, and during, the 28 day CIH/H exposure period daily baseline recordings of blood pressure and heart rate were recorded.
Animals were exposed to repetitive cycles of 3 minutes of mild H/H (6% O2+5% CO2+89%, N2) followed by 3 minutes of normoxia (21% O2+79% N2), repeated for 10 times per hour, 8 hr/day, for 3 or 4 weeks. The animals were exposed to CIH/H for 8 hours during light phase and to normal air during the remaining 16 hr. Unexposed animals that were exposed to normal air (21% O2+79% N2), were placed adjacent to the chambers during the exposure period to undergo similar handling, general lab conditions, and background noise as the CIH/H group.
1-2 weeks after telemetry implantation, DREADDs receptors on PVN OXT neurons were activated daily by intraperitoneal (IP) injection of clozapine-n-oxide (CNO, 1.0 mg/kg). To investigate the effects of CNO on resting BP and HR in both DREADDs-expressing and sham animals, 3 days prior to CIH/H exposure (control days) baseline BP and HR values were recorded for a 20 min period before CNO injection. Animals from each group then received an IP injection of CNO, BP and HR were recorded for 1 hr, and the animals then underwent exposure to air for 8 hr to achieve acclimation to the chambers. During the 21 days of CIH/H exposure, baseline recordings of BP and HR were obtained before CNO injection, recorded for 1 hr post CNO injection, and for the entire duration of OHM exposure.
To examine the effects of CNO on and the chronic changes to mean arterial blood pressure (MAP) over the 21 days of OHM exposure, values were recorded before and after CNO injection on control days prior to CIH exposures, and days 1, 3, 6, 9, 12, 15, 18, and 21 of CIH/H. Changes within the DREADDs-expressing animals and the sham animals were statistically analyzed by one-way ANOVA with repeated-measures followed by Bonferroni's multiple comparison test. […]

T1 sequence (P20309 whole entry Y149C/A239G, the tested form may be a part): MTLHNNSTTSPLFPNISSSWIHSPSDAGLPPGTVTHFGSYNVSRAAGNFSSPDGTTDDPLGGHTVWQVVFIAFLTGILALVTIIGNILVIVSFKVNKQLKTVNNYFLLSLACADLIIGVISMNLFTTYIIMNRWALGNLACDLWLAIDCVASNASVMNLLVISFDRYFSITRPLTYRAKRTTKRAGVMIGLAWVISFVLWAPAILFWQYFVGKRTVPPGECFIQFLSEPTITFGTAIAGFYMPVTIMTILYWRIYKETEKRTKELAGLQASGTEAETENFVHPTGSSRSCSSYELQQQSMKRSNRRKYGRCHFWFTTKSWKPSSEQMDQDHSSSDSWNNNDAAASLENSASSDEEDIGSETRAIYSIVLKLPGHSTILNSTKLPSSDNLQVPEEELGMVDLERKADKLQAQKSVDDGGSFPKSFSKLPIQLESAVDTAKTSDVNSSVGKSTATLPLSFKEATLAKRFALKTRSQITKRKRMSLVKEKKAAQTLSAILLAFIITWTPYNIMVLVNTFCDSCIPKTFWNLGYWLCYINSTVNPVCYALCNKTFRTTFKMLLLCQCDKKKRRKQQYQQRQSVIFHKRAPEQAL

With C[N+]1([O-])CCN(C2=Nc3cc(Cl)ccc3Nc3ccccc32)CC1 [CNO, clozapine-n-oxide] the “MAP in DREADDs-expressing group, Day 12” value (Day 12 of CIH/H, sham group 117±4.1 mmHg) was 105±2.6 mmHg, the “MAP in DREADDs-expressing group, Day 15” value (Day 15 of CIH/H, sham group 118±2.6 mmHg) was 105±3.1 mmHg and the “MAP in DREADDs-expressing group, Day 18” value (Day 18 of CIH/H, sham group 122±1.1 mmHg) was 104±2.9 mmHg. The “MAP in DREADDs-expressing group, Day 21” value (Day 21 of CIH/H, 104±2.6 mmHg on control days, sham group 120±0.5 mmHg) was 103±3.0 mmHg.
